Reference: paper PMC12090182, “Repurposing of the RIPK1-Selective Benzo[1,4]oxazepin-4-one Scaffold for the Development of a Type III LIMK1/2 Inhibitor” (ACS Chemical Biology, 2025)
Like-named read-outs stand apart in the source and are kept apart here.

Columns and labels:
Experiment in all cases: biochemical
Assay type in all cases: binding
[1] = target: 468 kinases including some pathogenic mutants (Homo sapiens, UniProt P46734); conditions: MEK3 (Entrez MAP2K3), 100 nM; read-out: Percent Control
[2] = target: 468 kinases including some pathogenic mutants (Homo sapiens, UniProt P15735); conditions: PHKG2 (Entrez PHKG2), 100 nM; read-out: Percent Control
[3] = target: 468 kinases including some pathogenic mutants (Homo sapiens, UniProt Q9UQ88); conditions: CDC2L2 (Entrez CDC2L2), 100 nM; read-out: Percent Control
[4] = target: 468 kinases including some pathogenic mutants (Homo sapiens, UniProt P23458); conditions: read-out: Percent Control
[5] = target: 468 kinases including some pathogenic mutants (Homo sapiens, UniProt P48736); conditions: PIK3CG (Entrez PIK3CG), 100 nM; read-out: Percent Control
[6] = target: 468 kinases including some pathogenic mutants (Homo sapiens, UniProt Q9H422); conditions: HIPK3 (Entrez HIPK3), 100 nM; read-out: Percent Control
[7] = target: 468 kinases including some pathogenic mutants (Homo sapiens, UniProt Q9UEE5); conditions: DRAK1 (Entrez STK17A), 100 nM; read-out: Percent Control
[8] = target: 468 kinases including some pathogenic mutants (Homo sapiens, UniProt Q9UBF8); conditions: PIK4CB (Entrez PI4KB), 100 nM; read-out: Percent Control
[9] = target: 468 kinases including some pathogenic mutants (Homo sapiens, UniProt Q9BXA7); conditions: TSSK1B (Entrez TSSK1B), 100 nM; read-out: Percent Control
[10] = target: 468 kinases including some pathogenic mutants (Homo sapiens, UniProt Q15759); conditions: p38-beta (Entrez MAPK11), 100 nM; read-out: Percent Control
[11] = target: 468 kinases including some pathogenic mutants (Homo sapiens, UniProt Q8N568); conditions: DCAMKL2 (Entrez DCLK2), 100 nM; read-out: Percent Control
[12] = target: 468 kinases including some pathogenic mutants (Homo sapiens, UniProt Q16832); conditions: DDR2 (Entrez DDR2), 100 nM; read-out: Percent Control
[13] = target: 468 kinases including some pathogenic mutants (Homo sapiens, UniProt Q9NQU5); conditions: PAK6 (Entrez PAK6), 1000 nM; read-out: Percent Control
[14] = target: 468 kinases including some pathogenic mutants (Homo sapiens, UniProt Q15569); conditions: TESK1 (Entrez TESK1), 100 nM; read-out: Percent Control
[15] = target: 468 kinases including some pathogenic mutants (Homo sapiens, UniProt Q9H2K8); conditions: TAOK3 (Entrez TAOK3), 100 nM; read-out: Percent Control
[16] = target: 468 kinases including some pathogenic mutants (Homo sapiens, UniProt Q16539); conditions: p38-alpha (Entrez MAPK14), 1000 nM; read-out: Percent Control
[17] = target: 468 kinases including some pathogenic mutants (Homo sapiens, UniProt P48730); conditions: CSNK1D (Entrez CSNK1D), 100 nM; read-out: Percent Control
[18] = target: 468 kinases including some pathogenic mutants (Homo sapiens, UniProt Q8IY84); conditions: NIM1 (Entrez MGC42105), 1000 nM; read-out: Percent Control
[19] = target: 468 kinases including some pathogenic mutants (Homo sapiens, UniProt Q8NFD2); conditions: ANKK1 (Entrez ANKK1), 100 nM; read-out: Percent Control
[20] = target: 468 kinases including some pathogenic mutants (Homo sapiens, UniProt Q9Y2H9); conditions: MAST1 (Entrez MAST1), 100 nM; read-out: Percent Control
[21] = target: 468 kinases including some pathogenic mutants (Homo sapiens, UniProt Q9UBE8); conditions: NLK (Entrez NLK), 100 nM; read-out: Percent Control
[22] = target: 468 kinases including some pathogenic mutants (Homo sapiens, UniProt Q5S007, G2019S); conditions: read-out: Percent Control
[23] = target: 468 kinases including some pathogenic mutants (Homo sapiens, UniProt P42680); conditions: TEC (Entrez TEC), 1000 nM; read-out: Percent Control
[24] = target: 468 kinases including some pathogenic mutants (Homo sapiens, UniProt O94921); conditions: PFTK1 (Entrez CDK14), 100 nM; read-out: Percent Control
[25] = target: 468 kinases including some pathogenic mutants (Homo sapiens, UniProt Q8WU08); conditions: YANK1 (Entrez STK32A), 100 nM; read-out: Percent Control
[26] = target: 468 kinases including some pathogenic mutants (Homo sapiens, UniProt P31749); conditions: AKT1 (Entrez AKT1), 100 nM; read-out: Percent Control
[27] = target: 468 kinases including some pathogenic mutants (Homo sapiens, UniProt Q96SB4); conditions: SRPK1 (Entrez SRPK1), 100 nM; read-out: Percent Control
[28] = target: 468 kinases including some pathogenic mutants (Homo sapiens, UniProt Q9BQI3); conditions: EIF2AK1 (Entrez EIF2AK1), 100 nM; read-out: Percent Control

Chain of 468 kinases including some pathogenic mutants (Homo sapiens, UniProt P23458) (P23458 whole entry, change not shown): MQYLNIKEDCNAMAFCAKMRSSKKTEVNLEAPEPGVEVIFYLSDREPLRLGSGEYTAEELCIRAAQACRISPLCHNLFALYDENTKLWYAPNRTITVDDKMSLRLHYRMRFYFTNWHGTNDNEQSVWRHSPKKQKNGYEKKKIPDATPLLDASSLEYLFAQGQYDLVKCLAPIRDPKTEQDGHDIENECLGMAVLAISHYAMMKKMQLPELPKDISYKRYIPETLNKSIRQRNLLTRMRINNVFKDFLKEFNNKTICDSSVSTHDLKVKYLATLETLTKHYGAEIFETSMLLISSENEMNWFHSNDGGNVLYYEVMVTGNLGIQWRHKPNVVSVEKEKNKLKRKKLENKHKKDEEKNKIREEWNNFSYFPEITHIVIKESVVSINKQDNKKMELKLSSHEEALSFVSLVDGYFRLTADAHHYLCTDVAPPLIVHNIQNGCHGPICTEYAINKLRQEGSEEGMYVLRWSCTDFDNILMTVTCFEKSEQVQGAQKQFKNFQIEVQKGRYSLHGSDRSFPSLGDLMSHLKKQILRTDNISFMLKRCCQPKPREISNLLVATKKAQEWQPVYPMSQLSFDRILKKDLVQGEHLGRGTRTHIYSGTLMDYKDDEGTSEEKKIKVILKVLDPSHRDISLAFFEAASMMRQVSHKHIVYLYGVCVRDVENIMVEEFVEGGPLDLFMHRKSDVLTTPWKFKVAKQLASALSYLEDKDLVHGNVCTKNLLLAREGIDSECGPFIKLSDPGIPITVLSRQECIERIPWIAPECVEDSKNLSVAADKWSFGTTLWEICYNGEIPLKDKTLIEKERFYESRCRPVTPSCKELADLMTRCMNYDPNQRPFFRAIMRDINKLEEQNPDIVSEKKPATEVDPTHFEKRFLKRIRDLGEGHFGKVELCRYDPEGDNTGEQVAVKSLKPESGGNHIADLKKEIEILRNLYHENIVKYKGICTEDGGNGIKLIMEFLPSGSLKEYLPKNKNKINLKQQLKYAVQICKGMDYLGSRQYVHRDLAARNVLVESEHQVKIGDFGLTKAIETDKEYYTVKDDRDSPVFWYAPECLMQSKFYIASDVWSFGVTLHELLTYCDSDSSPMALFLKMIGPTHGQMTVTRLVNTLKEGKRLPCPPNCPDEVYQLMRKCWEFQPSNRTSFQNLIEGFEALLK
Chain of 468 kinases including some pathogenic mutants (Homo sapiens, UniProt P48736) (P48736 whole entry, change not shown): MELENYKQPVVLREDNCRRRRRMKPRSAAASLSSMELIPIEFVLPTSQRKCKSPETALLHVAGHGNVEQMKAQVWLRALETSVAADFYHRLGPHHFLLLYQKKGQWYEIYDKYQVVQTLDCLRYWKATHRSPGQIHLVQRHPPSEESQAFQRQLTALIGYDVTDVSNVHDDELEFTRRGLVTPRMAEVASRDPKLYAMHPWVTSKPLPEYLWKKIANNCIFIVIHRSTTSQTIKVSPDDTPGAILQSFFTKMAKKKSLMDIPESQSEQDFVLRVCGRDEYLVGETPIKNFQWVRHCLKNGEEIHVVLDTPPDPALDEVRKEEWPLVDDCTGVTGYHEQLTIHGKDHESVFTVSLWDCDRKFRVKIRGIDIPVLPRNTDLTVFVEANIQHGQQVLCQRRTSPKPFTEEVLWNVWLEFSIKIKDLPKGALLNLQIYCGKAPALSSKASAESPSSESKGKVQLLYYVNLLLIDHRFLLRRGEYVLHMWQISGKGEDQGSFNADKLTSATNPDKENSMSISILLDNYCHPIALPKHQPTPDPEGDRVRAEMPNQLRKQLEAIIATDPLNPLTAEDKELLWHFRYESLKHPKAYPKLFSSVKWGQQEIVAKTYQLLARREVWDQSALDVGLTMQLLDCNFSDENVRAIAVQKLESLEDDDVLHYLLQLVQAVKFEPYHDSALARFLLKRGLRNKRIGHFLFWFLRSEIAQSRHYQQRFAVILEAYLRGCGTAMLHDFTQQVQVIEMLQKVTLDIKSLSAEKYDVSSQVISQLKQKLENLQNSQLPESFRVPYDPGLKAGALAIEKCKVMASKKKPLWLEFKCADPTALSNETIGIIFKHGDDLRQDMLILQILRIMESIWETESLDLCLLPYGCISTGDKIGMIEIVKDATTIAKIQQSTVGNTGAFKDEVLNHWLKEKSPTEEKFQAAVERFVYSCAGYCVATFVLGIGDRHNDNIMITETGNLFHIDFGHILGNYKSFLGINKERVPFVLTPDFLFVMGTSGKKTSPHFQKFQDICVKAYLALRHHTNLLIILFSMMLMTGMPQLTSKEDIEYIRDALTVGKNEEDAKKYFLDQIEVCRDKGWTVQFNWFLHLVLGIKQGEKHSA
Chain of 468 kinases including some pathogenic mutants (Homo sapiens, UniProt P46734) (P46734 whole entry, change not shown): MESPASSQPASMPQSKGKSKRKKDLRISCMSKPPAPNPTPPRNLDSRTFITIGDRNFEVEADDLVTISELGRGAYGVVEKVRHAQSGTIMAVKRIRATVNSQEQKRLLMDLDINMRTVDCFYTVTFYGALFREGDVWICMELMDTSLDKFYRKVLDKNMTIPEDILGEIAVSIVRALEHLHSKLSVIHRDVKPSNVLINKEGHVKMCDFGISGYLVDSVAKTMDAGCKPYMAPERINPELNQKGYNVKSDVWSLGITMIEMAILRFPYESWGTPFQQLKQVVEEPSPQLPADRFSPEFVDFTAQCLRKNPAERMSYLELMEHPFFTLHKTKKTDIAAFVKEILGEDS
Chain of 468 kinases including some pathogenic mutants (Homo sapiens, UniProt P42680) (P42680 whole entry, change not shown): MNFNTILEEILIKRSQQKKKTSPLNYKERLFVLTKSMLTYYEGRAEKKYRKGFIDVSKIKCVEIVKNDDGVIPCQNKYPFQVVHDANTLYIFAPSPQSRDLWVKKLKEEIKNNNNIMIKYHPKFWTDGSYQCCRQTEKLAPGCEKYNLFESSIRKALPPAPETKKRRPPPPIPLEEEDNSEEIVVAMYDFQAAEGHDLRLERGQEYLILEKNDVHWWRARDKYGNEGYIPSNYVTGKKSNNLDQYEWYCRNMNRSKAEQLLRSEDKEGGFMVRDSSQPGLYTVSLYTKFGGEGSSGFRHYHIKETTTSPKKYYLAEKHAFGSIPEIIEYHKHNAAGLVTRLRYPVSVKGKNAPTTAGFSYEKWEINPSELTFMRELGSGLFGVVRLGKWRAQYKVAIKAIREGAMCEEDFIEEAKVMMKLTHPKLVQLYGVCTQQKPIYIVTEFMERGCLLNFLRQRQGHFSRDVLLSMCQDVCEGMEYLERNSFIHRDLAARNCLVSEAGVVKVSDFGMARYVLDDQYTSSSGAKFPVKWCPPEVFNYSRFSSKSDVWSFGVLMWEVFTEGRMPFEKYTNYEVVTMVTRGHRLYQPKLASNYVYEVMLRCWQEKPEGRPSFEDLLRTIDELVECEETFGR
Chain of 468 kinases including some pathogenic mutants (Homo sapiens, UniProt Q96SB4) (Q96SB4 whole entry, change not shown): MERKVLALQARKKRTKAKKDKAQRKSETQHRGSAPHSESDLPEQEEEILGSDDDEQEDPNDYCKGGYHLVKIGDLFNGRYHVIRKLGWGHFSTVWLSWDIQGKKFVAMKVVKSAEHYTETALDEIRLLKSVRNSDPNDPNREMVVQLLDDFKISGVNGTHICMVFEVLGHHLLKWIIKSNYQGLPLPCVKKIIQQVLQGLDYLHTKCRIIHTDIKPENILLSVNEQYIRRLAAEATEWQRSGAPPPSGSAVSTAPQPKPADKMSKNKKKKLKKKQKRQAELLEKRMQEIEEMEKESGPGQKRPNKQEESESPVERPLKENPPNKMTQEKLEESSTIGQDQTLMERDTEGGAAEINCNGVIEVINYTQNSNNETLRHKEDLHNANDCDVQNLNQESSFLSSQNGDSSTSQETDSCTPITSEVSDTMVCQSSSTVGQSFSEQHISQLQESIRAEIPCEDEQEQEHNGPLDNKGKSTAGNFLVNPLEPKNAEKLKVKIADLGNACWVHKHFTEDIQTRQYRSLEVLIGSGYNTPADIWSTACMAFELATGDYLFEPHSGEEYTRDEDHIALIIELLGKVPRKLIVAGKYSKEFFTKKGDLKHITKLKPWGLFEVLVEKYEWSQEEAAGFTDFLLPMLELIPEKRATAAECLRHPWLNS
Chain of 468 kinases including some pathogenic mutants (Homo sapiens, UniProt Q9UBE8) (Q9UBE8 whole entry, stated change not applied): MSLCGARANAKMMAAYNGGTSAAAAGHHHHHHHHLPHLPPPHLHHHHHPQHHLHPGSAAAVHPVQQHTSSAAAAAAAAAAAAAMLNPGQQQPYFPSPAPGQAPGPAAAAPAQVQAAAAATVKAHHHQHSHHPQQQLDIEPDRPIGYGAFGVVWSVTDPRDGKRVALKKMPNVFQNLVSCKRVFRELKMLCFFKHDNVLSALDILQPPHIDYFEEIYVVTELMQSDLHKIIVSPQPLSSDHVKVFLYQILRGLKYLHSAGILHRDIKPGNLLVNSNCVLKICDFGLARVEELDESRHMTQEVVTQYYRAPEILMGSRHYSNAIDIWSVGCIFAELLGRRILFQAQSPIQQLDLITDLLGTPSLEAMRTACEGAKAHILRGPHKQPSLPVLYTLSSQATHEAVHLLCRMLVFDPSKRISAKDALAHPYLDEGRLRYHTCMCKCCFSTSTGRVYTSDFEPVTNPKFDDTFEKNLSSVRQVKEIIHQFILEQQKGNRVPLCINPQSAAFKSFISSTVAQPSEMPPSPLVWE
Chain of 468 kinases including some pathogenic mutants (Homo sapiens, UniProt Q9UEE5) (Q9UEE5 whole entry, change not shown): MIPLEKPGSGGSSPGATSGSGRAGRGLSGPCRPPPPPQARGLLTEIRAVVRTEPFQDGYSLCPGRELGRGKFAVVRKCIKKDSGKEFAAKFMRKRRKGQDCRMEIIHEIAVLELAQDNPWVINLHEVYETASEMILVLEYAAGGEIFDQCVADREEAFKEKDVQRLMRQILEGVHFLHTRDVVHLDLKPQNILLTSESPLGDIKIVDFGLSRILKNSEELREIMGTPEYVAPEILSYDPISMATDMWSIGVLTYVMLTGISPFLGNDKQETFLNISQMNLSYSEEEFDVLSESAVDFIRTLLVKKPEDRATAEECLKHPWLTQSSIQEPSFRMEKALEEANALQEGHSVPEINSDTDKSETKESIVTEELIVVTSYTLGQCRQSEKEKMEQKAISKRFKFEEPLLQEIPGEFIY

## CN1C(=O)[C@@H](N2CCc3c(nn(Cc4ccccc4)c3C(N)=O)C2=O)COc2cc(Cl)ccc21 [Compound 10, (S)-2-benzyl-6-(8-chloro-5-methyl-4-oxo-2,3,4,5-tetrahydrobenzo[b][1,4]oxazepin-3-yl)-7-oxo-4,5,6,7-tetrahydro-2H-pyrazolo[3,4-c]pyridine-3-carboxamide]
[1]
  remaining activity at 0.1 µM: 85%
[2]
  remaining activity at 0.1 µM: 62%
[3]
  remaining activity at 0.1 µM: 100%
[4]; JAK1(JH1domain-catalytic) (Entrez JAK1), 100 nM
  remaining activity at 0.1 µM: 83%
[4]
  remaining activity at 0.1 µM: 97%
[5]
  remaining activity at 0.1 µM: 65%
[6]
  remaining activity at 0.1 µM: 77%
[7]
  remaining activity at 0.1 µM: 84%
[8]
  remaining activity at 0.1 µM: 94%
[9]
  remaining activity at 0.1 µM: 83%
[10]
  remaining activity at 0.1 µM: 100%
[11]
  remaining activity at 0.1 µM: 100%
[12]
  remaining activity at 0.1 µM: 84%
[13]
  remaining activity at 1 µM: 100%
[14]
  remaining activity at 0.1 µM: 79%
[15]
  remaining activity at 0.1 µM: 71%
[16]
  remaining activity at 1 µM: 100%
[17]
  remaining activity at 0.1 µM: 79%
[18]
  remaining activity at 1 µM: 100%
[19]
  remaining activity at 0.1 µM: 77%
[20]
  remaining activity at 0.1 µM: 67%
[21]
  remaining activity at 0.1 µM: 91%
[22]
  remaining activity at 0.1 µM: 85%
[23]
  remaining activity at 1 µM: 100%
[24]
  remaining activity at 0.1 µM: 95%
[25]
  remaining activity at 0.1 µM: 89%
[26]
  remaining activity at 0.1 µM: 87%
[27]
  remaining activity at 0.1 µM: 100%
[28]
  remaining activity at 0.1 µM: 100%
